Source: ChEMBL document CHEMBL5678796, “A highly potent and selective farnesyltransferase inhibitor ABT-100 in preclinical studies” (Anticancer Drugs, 2005)

Experiments:
HCT-116 [1] = assay: Antitumor activity against human HCT-116 cells xenografted in nu/nu CD1 mouse assessed as increase in life span at 50 mg/kg, sc preinoculated with cells for 14 days followed by once daily compound administration for 21 days and measured on day 40 relative to vehicle in time to 1 cm^3 tumor; type: functional; settings: HCT-116, 960 h, time 40 day
HCT-116 [2] = assay: Antitumor activity against human HCT-116 cells xenografted in nu/nu CD1 mouse assessed as tumor volume at 12.5 mg/kg, sc preinoculated with cells for 5 days followed by once daily compound administration for 21 days and measured on day 25 (reference value: 1569 +/- 165 mm^3); type: functional; settings: time 25 day
HCT-116 [3] = assay: Antitumor activity against human HCT-116 cells xenografted in nu/nu CD1 mouse assessed as tumor volume at 6.25 mg/kg, sc preinoculated with cells for 5 days followed by once daily compound administration for 21 days and measured on day 25 (reference value: 1569 +/- 165 mm^3); type: functional; settings: time 25 day
HCT-116 [4] = assay: Antitumor activity against human HCT-116 cells xenografted in nu/nu CD1 mouse assessed as increase in life span at 25 mg/kg, sc preinoculated with cells for 5 days followed by once daily compound administration for 21 days and measured on day 25 relative to vehicle in time to 1 cm^3 tumor; type: functional; settings: HCT-116, 600 h, time 25 day
[5] = Oral bioavailability in rat at 5 mg/kg; type: ADME, organism-based; settings: in vivo
Mus musculus [6] = assay: Antiangiogenic activity in human recombinant VEGF-stimulated CF1 mouse corneal model assessed as inhibition of new blood growth area at 50 mg/kg, sc prestimulated with VEGF followed by compound administration and measured on day 7 by slit lamp biomicroscopic analysis relative to control; type: functional; settings: CF1, 168 h, time 7 day
HCT-116 [7] = assay: Antitumor activity against human HCT-116 cells xenografted in nu/nu CD1 mouse assessed as reduction in tumor volume by measuring tumor to control ratio at 25 mg/kg, sc preinoculated with cells for 5 days followed by once daily compound administration for 21 days and measured on day 25; type: functional; settings: time 25 day
[8] = Inhibition of recombinant bovine GGTase I incubated for 30 min sin presence of [3H]FPP by SPA based Topcount scintillation plate reader analysis; design: species or system Bos taurus
Mus musculus [9] = assay: Antiangiogenic activity in human recombinant VEGF-stimulated CF1 mouse corneal model assessed as inhibition of new blood growth area at 100 mg/kg, sc prestimulated with VEGF followed by compound administration and measured on day 7 by slit lamp biomicroscopic analysis relative to control; type: functional; settings: CF1, 168 h, time 7 day
[10] = AUC in dog at 2.5 mg/kg, po; type: ADME, organism-based, Canis lupus familiaris; settings: in vivo
HCT-116 [11] = assay: Inhibition of VEGF secretion in human HCT-116 cells incubated for 72 hrs by ELISA; type: functional, cell-based; settings: dose 0.1-3 µmol/L
[12] = Inhibition of GGTase in H-Ras transformed mouse NIH3T3 cells using Rap 1A as substrate assessed as inhibition of substrate prenylation in presence of 10% bovine serum by immunoblot analysis; type: cell-based
[13] = Half-life in dog at 2.5 mg/kg, po; type: ADME, organism-based, Canis lupus familiaris; settings: in vivo
HCT-116 [14] = assay: Antitumor activity against human HCT-116 cells xenografted in nu/nu CD1 mouse assessed as increase in life span at 50 mg/kg, sc preinoculated with cells for 5 days followed by once every 2 days compound administration for 11 times and measured on day 22 relative to vehicle in time to 1 cm3 tumor; type: functional; settings: HCT-116, 528 h, time 22 day
[15] = Clearance in rat at 5 mg/kg, iv; type: ADME, organism-based; settings: in vivo
[16] = AUC in rat at 5 mg/kg, iv; type: ADME, organism-based; settings: in vivo
[17] = Selectivity ratio of EC50 for inhibition of GGTase in H-Ras transformed mouse NIH3T3 cells using Rap 1A as substrate assessed as inhibition of substrate prenylation in presence of 10% bovine serum to EC50 for inhibition of FTase in H-Ras transformed mouse NIH3T3 cells using Ras as substrate assessed as inhibition of substrate prenylation in presence of 10% bovine serum; settings: condition cancer
[18] = AUC in dog at 2.5 mg/kg, iv; type: ADME, organism-based, Canis lupus familiaris; settings: in vivo
[19] = AUC in rat at 5 mg/kg, po; type: ADME, organism-based; settings: in vivo
[20] = Cmax in rat at 5 mg/kg, po; type: ADME, organism-based; settings: in vivo
[21] = Inhibition of FTase in human HCT-116 cells expressing low level of P-gp1 using Ras as substrate assessed as inhibition of substrate post-translation processing in presence of 20% human serum by immunoblot analysis; type: cell-based
HCT-116 [22] = assay: Antitumor activity against human HCT-116 cells xenografted in nu/nu CD1 mouse assessed as increase in life span at 12.5 mg/kg, sc preinoculated with cells for 5 days followed by once daily compound administration for 21 days and measured on day 25 relative to vehicle in time to 1 cm^3 tumor; type: functional; settings: HCT-116, 600 h, time 25 day
[23] = Inhibition of FTase in human HCT-116 cells expressing low level of P-gp1 using Ras as substrate assessed as inhibition of substrate post-translation processing in presence of 10% FBS by immunoblot analysis; type: cell-based
[24] = AUC in rat at 25 mg/kg, po; type: ADME, organism-based; settings: in vivo
HCT-116 [25] = assay: Antitumor activity against human HCT-116 cells xenografted in nu/nu CD1 mouse assessed as tumor volume at 50 mg/kg, sc preinoculated with cells for 5 days followed by once every 2 days compound administration for 11 times and measured on day 22 (reference value: 1557 +/- 370 mm^3); type: functional; settings: time 22 day
[26] = Inhibition of FTase in H-Ras transformed mouse NIH3T3 cells using Ras as substrate assessed as inhibition of substrate prenylation in presence of 10% bovine serum by immunoblot analysis; type: cell-based
[27] = Oral bioavailability in rat at 25 mg/kg; type: ADME, organism-based; settings: in vivo
[28] = Inhibition of FTase in human DLD-1 cells expressing moderate level of P-gp1 using Ras as substrate assessed as inhibition of substrate post-translation processing in presence of 10% human serum by immunoblot analysis; type: cell-based
NIH3T3 = assay: Inhibition of anchorage-independent growth in H-Ras transformed mouse NIH3T3 cells assessed as inhibition of colony formation incubated for 14 days in presence of 10% bovine serum by imaging based soft agar colony formation assay; type: functional, cell-based
[29] = Ratio of EC50 for inhibition of FTase in human HCT-116 cells expressing low level of P-gp1 using Ras as substrate assessed as inhibition of substrate post-translation processing in presence of 20% human serum to EC50 for inhibition of FTase in human HCT-116 cells expressing low level of P-gp1 using Ras as substrate assessed as inhibition of substrate post-translation processing in presence of 10% …; settings: condition cancer
Mus musculus [30] = assay: Antiangiogenic activity in human recombinant bFGF-stimulated CF1 mouse corneal model assessed as inhibition of new blood growth area at 25 mg/kg, sc prestimulated with bFGF followed by compound administration and measured on day 5 by slit lamp biomicroscopic analysis relative to control; type: functional; settings: CF1, 120 h, time 5 day
[31] = Cmax in dog at 2.5 mg/kg, po; type: ADME, organism-based, Canis lupus familiaris; settings: in vivo
HCT-116 [32] = assay: Antitumor activity against human HCT-116 cells xenografted in nu/nu CD1 mouse assessed as tumor volume at 50 mg/kg, sc preinoculated with cells for 14 days followed by once daily compound administration for 21 days and measured on day 40 (reference value: 2973 +/- 593 mm^3); type: functional; settings: time 40 day
Mus musculus [33] = assay: Antiangiogenic activity in human recombinant VEGF-stimulated CF1 mouse corneal model assessed as inhibition of new blood growth area at 25 mg/kg, sc prestimulated with VEGF followed by compound administration and measured on day 7 by slit lamp biomicroscopic analysis relative to control; type: functional; settings: CF1, 168 h, time 7 day
[34] = Volume of distribution in dog at 2.5 mg/kg, iv; type: ADME, organism-based, Canis lupus familiaris; settings: in vivo

Cn1cncc1[C@](O)(COc1ccc(C#N)cc1-c1ccc(OC(F)(F)F)cc1)c1ccc(C#N)cc1 [ABT-100]
ILS at 50 mg/kg (HCT-116 [1]): 52%
Activity (HCT-116 [2]): 721 mm3
Activity (HCT-116 [3]): 899 mm3
ILS at 25 mg/kg (HCT-116 [4]): 100%
bioavailability [5]: 15.1%
inhibition in vivo at 50 mg/kg (Mus musculus [6]): 25%
T/C (HCT-116 [7]): 32%
IC50 [8]: > 10 µM
inhibition in vivo at 100 mg/kg (Mus musculus [9]): 39%
AUC [10]: 2840 ng·h/mL
inhibition (HCT-116 [11]): Dose-Dependent Effect
EC50 [12]: > 30 µM
half-life [13]: 354 min
ILS at 50 mg/kg (HCT-116 [14]): 32%
clearance [15]: 16.7 mL/min/kg
AUC [16]: 3010 ng·h/mL
Ratio EC50 [17]: >41000
AUC [18]: 7700 ng·h/mL
AUC [19]: 450 ng·h/mL
Cmax [20]: 80 ng/mL
EC50 [21]: 1.7 nM
ILS at 12.5 mg/kg (HCT-116 [22]): 61%
EC50 [23]: 0.43 nM
AUC [24]: 4620 ng·h/mL
Activity (HCT-116 [25]): 873 mm3
EC50 [26]: 0.73 nM
bioavailability [27]: 30.7%
EC50 [28]: 0.4 nM
EC50 (NIH3T3; NIH3T3, 336 h): 0.9 nM
inhibition (NIH3T3; time 14.0 day): Dose-Dependent Effect
Ratio EC50 [29]: 1.5
inhibition in vivo at 25 mg/kg (Mus musculus [30]): 32%
Cmax [31]: 280 ng/mL
Activity (HCT-116 [32]): 1530 mm3
inhibition in vivo at 25 mg/kg (Mus musculus [33]): 8%
Vd [34]: 3.3 L/kg
